# Results: patent US7425635B2, “Prodrugs and conjugates of thiol- and selenol-containing compounds and methods of use thereof” (University of Utah Research Foundation, priority 1997, dated 2008)
# Like-named read-outs stand apart in the source and are kept apart here. Marks after values point to notes of the source that are not given here.
# Assays:
# [1] = sALT (hepatotoxicity) after 7 daily ip doses; format: in vivo; set-up: unit not given here; details: 7 daily doses ip, 1.25 mg Se/kg, with corn oil; untreated mice 37.5 ± 2.9
# Description: (§1) Many of the mRNA changes seen with a single dose were not sustained with multiple dosing. Changes in Ugt transcripts after multiple dosing were noticeably absent. Unique to BSCA among the four new compounds investigated was its ability to induce Gst-alpha, Gst-mu and GPx mRNAs. For the Gst-alpha transcripts, which appeared elevated by corn oil, the BSCA increase was much greater than the vehicle alone (8-fold versus 2-fold) and was statistically significant (p<0.05). BSCA shared with PhOHSCA the ability to elevate mEH mRNA.
# GPx [2] = assay: Northern blot of liver GPx mRNA after ip dosing; format: in vivo, mice; details: mean ± SEM
# Protocol: (§2) Linking efficacy to biochemical parameters and a mechanism was limited in the initial study by only two parameters, [Se] and GPx activity. The in-vivo effects of selenazolidine compounds were then evaluated using, in addition to GPx, glutathione S-transferases (GSTs), quinone oxidoreductases (NQORs), UDP-glucuronosyltransferases (UGTs), and microsomal epoxide hydrolase (mEH). To investigate transcriptional changes of these classes of enzymes, it was necessary to develop a battery of cDNA probes for use in Northern blot analysis of RNA extracted from treated animals (Table 2).
# (§3) Whether the selenaproline compounds had the ability to up-regulate the transcription of Phase II and/or other “protective” enzymes was first evaluated following a single dose of each (Table 3). […] The experiment was repeated but with a 7-day treatment regimen (Table 4), the time period for which the compounds were given in the diet before NNK administration in the tumor experiment reported in Table 1. […] With multiple doses, SCA induced Ugt1a9, an mRNA that was not changed with a single dose. […] The elevation in the Gst-mu transcript was unique to multiple OSCA treatment. The elevation of the GST-alpha mRNA was also seen with SCA treatment. Microsomal epoxide hydrolase mRNA was robustly elevated by multiple doses of all three selenaproline compounds, an effect not anticipated from the single dose experiment where not even minor changes were apparent.
# Ugt1a6 = assay: Northern blot of liver Ugt1a6 mRNA after ip dosing; format: in vivo, mice; details: mean ± SEM
# Protocol: as §2, §3
# Gst-alpha = assay: Northern blot of liver Gst-alpha mRNA after ip dosing; format: in vivo, mice; details: mean ± SEM
# Protocol: as §2, §3
# Gst-mu = assay: Northern blot of liver Gst-mu mRNA after ip dosing; format: in vivo, mice; details: mean ± SEM
# Protocol: as §2, §3
# Ugt1a1 = assay: Northern blot of liver Ugt1a1 mRNA after ip dosing; format: in vivo, mice; details: mean ± SEM
# Protocol: as §2, §3
# Ugt1a9 = assay: Northern blot of liver Ugt1a9 mRNA after ip dosing; format: in vivo, mice; details: for Ugt1a9 mRNA: mean ± SEM
# Protocol: as §2, §3
# mEH = assay: Northern blot of liver mEH mRNA after ip dosing; format: in vivo, mice; details: mean ± SEM
# Protocol: as §2, §3
# [3] = tested on: 'protective' enzyme mRNAs; assay: Northern blot of 'protective' enzyme mRNAs (all probes) after ip dosing; format: in vivo, mice; details: 7 daily doses ip, with corn oil
# Protocol: as §2, §1
# E. coli AB1157 [4] = assay: Toxicity in E. coli AB1157 (colony forming ability); format: cell-based
# Protocol: (§4) A well characterized bacterial system was used as an initial screen for radioprotective activity of the novel compounds. A single colony of the bacteria, growing on a plate of LB medium (10 g tryptone, 5 g yeast extract, plus 5 g NaCl in 1 L water), was inoculated into 2 mL LB and incubated overnight. 20 mL LB medium were then inoculated with 600 μL of the overnight culture, and incubated with shaking at 37° C., 250 rpm. The cells were collected and washed with phosphate buffered saline. At this point the bacteria could be irradiated, treated with drug, etc., as outlined below. After dilution of the treated cells to 100 cells per 100 μL, they are plated out and incubated overnight. Cell viability is then measured by colony forming ability.
# The toxicity of the compounds of interest in this system was explored.
# E. coli AB1157 [5] = assay: Radioprotection in E. coli AB1157; format: cell-based; details: E. coli AB1157, agent 1 hour before irradiation at 0.6 kGy
# Protocol: Radioprotection in E. coli AB1157
# as §4
# Growth curves were generated for the bacteria in the absence of any treatment to provide experience with basic handling as well as important baseline information. The radiation dose response of the system was investigated irradiating bacterial cultures in a Shepherd Mark I ^137Cs irradiator over a dose range of 0 to 1 kGy. The dose-response curves are linear and reproducible from day to day.
# Radioprotection experiments were also conducted in the bacterial system. […] Surviving fraction compared to that seen in control (untreated) cells, which were not irradiated, was then calculated.
# GST = assay: Hepatic cytosolic GST (CDNB) activity after 7 daily ip doses; format: in vivo, mice; details: 7 daily doses ip, hepatic cytosol; naive 5248 ± 503
# GPx [6] = assay: Hepatic and RBC (tButylOOH) GPx activity in four-month feeding study; format: in vivo; details: mice, diet 15 ppm Se, NNK
# Protocol: Three novel selenazolidines, 2-methyl-, 2-oxo- and 2-unsubstituted (i.e., selenaproline) selenazolidine-4[R]-carboxylic acid (MSCA, OSCA, and SCA respectively) that had been synthesized as prodrugs of selenocysteine were evaluated for their potential to act as cancer chemopreventive agents. [Se] and GPx activity were evaluated.
# (§5) Where indicated, mice (16 g) were given diets fortified with SCA, MSCA or OSCA (15 ppm Se) for 1 week prior to NNK (10 umol, ip). Two other groups received the unmodified AIN-76A diet, with and without NNK administration. All groups were maintained on their pretreatment diet until the animals were sacrificed after 16 weeks. Liver GPx activity is expressed as μmol NADPH oxidized [in regenerating GSH]/min/mg 10,000 g×20 min supernatant protein; RBC activity as μmol/min/mg RBC lysate hemoglobin.
# GPx [7] = assay: Hepatic cytosolic GPx (H202) activity after 7 daily ip doses; format: in vivo, mice; details: 7 daily doses ip, hepatic cytosol; naive 894 ± 36
# [8] = Body weight gain and liver weight in four-month feeding study; format: in vivo; details: mice, diet 15 ppm Se, NNK
# Protocol: as §5
# [9] = 7 daily doses ip, 1.25 mg Se/kg, with corn oil, liver RNA 24 hours after the last dose
# [10] = 1 dose ip, 1.25 mg Se/kg in corn oil, liver RNA 24 hours after dosing
# [11] = E. coli AB1157, cell viability by colony forming ability
# [12] = 1 dose ip, 1.25 mg Se/kg, liver RNA 24 hours after dosing
# [13] = 7 daily doses ip, 1.25 mg Se/kg, liver RNA 24 hours after the last dose
Compound,sALT [1],GPx mRNA (GPx [2]; [9]) [fold change from naive],Ugt1a6 mRNA (Ugt1a6; [9]) [fold change from naive],Gst-alpha mRNA (Gst-alpha; [10]) [fold change from naive],Gst-alpha mRNA (Gst-alpha; [9]) [fold change from naive],Gst-mu mRNA (Gst-mu; [10]) [fold change from naive],Gst-mu mRNA (Gst-mu; [9]) [fold change from naive],Ugt1a1 mRNA (Ugt1a1; [9]),Ugt1a9 mRNA (Ugt1a9; [10]) [fold change from naive],Ugt1a9 mRNA (Ugt1a9; [9]),mEH mRNA (mEH; [10]) [fold change from naive],Toxicity in the bacterial system (E. coli AB1157 [4]; [11]),other results
2-(2-hydroxyphenyl)-SCA [PhOHSCA],42.4 ± 3.0,1.51 ± 0.50,0.99 ± 0.14,1.49 ± 0.22,1.91 ± 0.71,1.18 ± 0.32,1.54 ± 0.23,0.77 ± .04 fold change from naive,1.65 ± 0.32,1.06 ± .14 fold change from naive,1.38 ± 0.48,–,"Ugt1a9 transcript expression compared to the corn oil effect (Ugt1a9; 1 dose ip, in corn oil, comparison with corn oil alone): significantly reduced"
"O=C(O)C1C[Se]C(C2CCCCC2)N1 (mixture of isomers) [ChSCA, 2-cyclohexyl-SCA]",40.0 ± 1.7,2.26 ± 0.66,1.22 ± 0.17,1.73 ± 0.20,1.99 ± 0.77,1.20 ± 0.15,1.32 ± 0.21,1.20 ± 0.17 fold change from naive,3.04 ± 0.55,1.16 ± 0.13 fold change from naive,1.34 ± 0.41,–,"GPx mRNA (GPx [2]; [10]): 1.20 ± 0.15 fold change from naive; Induction of 'protective' enzyme mRNAs (any) [3]: failed to induce any mRNAs; Ugt1a9 mRNA (Ugt1a9; 1 dose ip, 1.25 mg Se/kg in corn oil, liver RNA 24 hours after dosing, listed as CnSCA): statistically elevated; mEH mRNA (mEH; [9]): 1.31 ± 0.19 fold change from naive"
"O=C(O)C1C[Se]C(c2ccccc2)N1 (mixture of isomers) [PhSCA, 2-phenyl-SCAS]",37.3 ± 1.4,1.46 ± 0.35,0.96 ± 0.04,0.63 ± 0.14,2.29 ± 0.68,0.74 ± 0.16,1.01 ± 0.27,1.32 ± 0.12 fold change from naive,2.14 ± 0.54,0.83 ± 0.08 fold change from naive,0.98 ± 0.27,–,GPx mRNA (GPx [2]; [10]): 0.74 ± 0.16 fold change from naive; Ugt1a6 mRNA (Ugt1a6; [10]): 1.78 ± 0.54 fold change from naive; Ugt1a1 mRNA (Ugt1a1; [10]): 1.41 ± 0.30 fold change from naive; Induction of 'protective' enzyme mRNAs (any) [3]: failed to induce any mRNAs; mEH mRNA (mEH; [9]): 0.80 ± 0.15 fold change from naive
"NCCCN1CCSC1=O [2-oxo prodrug, 3-(3-Aminopropyl)-2-thiazolidinone]",–,–,–,–,–,–,–,–,–,–,–,neither WR-1065 nor its 2-oxo prodrug produced any toxicity,–
"O=C1NCCS1 [2-oxocysteamine prodrug, 2-Thiazolidinone]",–,–,–,–,–,–,–,–,–,–,–,completely eliminated the profound toxicity observed with cysteamine itself,–
"NC1CCSC1=O (stereo not shown) [HCTL, homocysteine thiolactone]",–,–,–,–,–,–,–,–,–,–,–,–,Radioprotection (surviving fraction) (E. coli AB1157 [5]): greatest amount of protection
"O=C1N[C@H](C(=O)O)C[Se]1 [OSCA, 2-Oxoselenazolidine-4(R)-carboxylic acid]",–,–,–,–,–,–,–,–,–,–,–,–,"GPx (1.5 kb) mRNA (GPx [2]; [12]): 0.80 ± 0.22 fold change from naive; GPx mRNA (GPx [2]; [13]): 1.13 ± 0.39 fold change from naive; Gst-alpha mRNA (Gst-alpha; [12]): 1.61 ± 0.53 fold change from naive; GST (CDNB) activity (GST): 6887 ± 1142 nmol/mg cytosol (100,000 g supernatant) protein/min; Gst-mu mRNA (Gst-mu; [12]): 1.38 ± 0.33 fold change from naive; RBC (tButylOOH) GPx (GPx [6]; RBC): 281 ± 24 μmol/min/mg RBC lysate hemoglobin; Hepatic (tButylOOH) GPx (GPx [6]; liver): 518 ± 59 μmol NADPH oxidized/min/mg 10,; GPx (H202) activity (GPx [7]): 880 ± 72 nmol/mg cytosol (100,000 g supernatant) protein/min; Body wt gain (%) [8]: 39.9* %; Liver weight [8]: 1.02 ± 0.02 g; mEH mRNA (mEH; [12]): 0.88 ± 0.19 fold change from naive; mEH mRNA (mEH; [13]): 2.91 ± 1.48 fold change from naive"
"NCCCNCCS [WR-1065, reference compound]",–,–,–,–,–,–,–,–,–,–,–,neither WR-1065 nor its 2-oxo prodrug produced any toxicity,Radioprotection (surviving fraction) (E. coli AB1157 [5]): greatest amount of protection
"NCCS [cysteamine, reference compound]",–,–,–,–,–,–,–,–,–,–,–,–,Toxicity in the bacterial system (E. coli AB1157 [4]): profound toxicity
